Source: article PMC5829242, “Chiral DOTA chelators as an improved platform for biomedical imaging and therapy applications” (Nature Communications, 2018)
Like-named read-outs stand apart in the source and are kept apart here.

Key:
[1] = Gd complexes biodistribution studies (ICP-MS); format: in vivo, BALB/c mice; settings: 0.025 mmol/kg i.v.; for Gd biodistribution / elimination profile: 5-360 min post injection
From the text: Most commercially available Gd(III)-based MRI contrast agents are excreted rapidly and exclusively through the renal pathway. One of the few exceptions is an acyclic compound, Gd-EOB-DTPA, which has a mixed clearance (50% renal, 50% biliary) and is used for imaging of the liver and biliary system. Gd-BOPTA and MS-325 have predominantly renal elimination with <10% elimination through the biliary system. […] We illustrated with our studies that there is a significant variation in the biodistribution profiles despite the small structural differences of the chiral substituents (Supplementary Fig. 20). Gd biodistribution in BALB/c mice was measured by ICP-MS at 5, 15, 30, 60, 180 and 360 min following injection. […] Low levels of Gd(III) are present at 6 h post injection. […] The specific and unusual localisation of [GdL2]^− in the liver makes it a potential hepatobiliary-specific MRI contrast agent.
(§1) Gd concentrations were determined using an Agilent 8800-QQQ ICP-MS system. All samples were diluted with 0.1% Triton X-100 in 5% nitric acid. Lutetium internal standard was steadily introduced to the ICP-MS from an external source during the analysis. A linear calibration curve for each metal ranging from 0.1 ppb to 200 ppb was generated daily for the quantification.
Complexes [GdL1]^−, [GdL2]^− and [GdL5]^− were prepared by dissolving in saline solution, while [GdDOTA]^− (Dotarem) was diluted in saline solution. Eight-week-old male BALB/c mice (purchased from BioLASCO, Taiwan) each weighing approximately 25 g were administered with a single dose of 0.025 mmol/kg compound ([GdL1]^−, [GdL2]^−, [GdDOTA]^− and [GdL5]^−; 3 mice per compound per time point) in a 100 μl volume via lateral tail vein injection. The mice were then euthanized, and their blood collected by cardiac puncture at each time point (5, 15, 30, 60, 180 or 360 min post injection). A control group of 4 mice was treated with saline and killed at time point 0. The liver, lung, heart, kidneys, spleen and brain were removed from the animals and weighed. Gd content in tissue and blood samples was quantified via ICP-MS analysis. All experiments were performed in accordance with the NIH Guide for the Care and Use of Laboratory Animals and approved by the Institutional Animal Care and Use Committee of Massachusetts General Hospital or by the Department of Health of the Hong Kong Government and the Animal Subjects Ethics Sub-Committee of Hong Kong Polytechnic University.

[2] = Ex vivo biodistribution 2 h post injection after MRI study (ICP-MS); format: in vivo, C57/Bl6 mice; settings: 0.1 mmol per kg i.v.
Procedure: as §1
(§2) Imaging was performed at 4.7T using a small-bore animal scanner (Bruker Biospec). Pilot dynamic MRI studies were performed with [GdL1]^−, [GdL2A]^−, [GdL2B]^− and [GdL5]^−; n = 1 per compound. Six to eight weeks male C57/Bl6 mice were anaesthetised with isoflurane (1%–2%) and placed in a specially designed cradle with body temperature maintained at 37 °C. The tail vein was catherised for intravenous delivery of the contrast agent while the animal was positioned in the scanner. A pneumatic pillow was placed on the mouse to enable respiratory monitoring (SA Instruments), and the animal’s body temperature was maintained with warm air. The imaging protocol utilised a three-dimensional fast low angle shot (3D FLASH) with a […] flip angle, 9.00 ms repetition rate, 2.39 ms echo time, 4.8 cm × 2.4 cm × 2.4 cm field of view with a 0.3 mm isotropic resolution. Images were acquired with either 2 or 8 averages giving an acquisition time of 2 min or 8 min, respectively. Baseline images were acquired with both 2 and 8 averages, then the Gd complex (0.1 mmol per kg) was injected intravenously and the sequence with 2 averages was repeated for a period of 10 min to monitor blood clearance. At 10, 30, 45, 60, 75 and 90 min after probe injection, the sequence with 8 averages was repeated to monitor the clearance of contrast from the liver and kidneys. After imaging was performed, the mouse was removed from the scanner and euthanized at 2 h post injection and the tissues were harvested for Gd quantification by ICP-MS.

[3] = 17O NMR water exchange (residence time of water co-ligand); format: physicochemical; settings: 17O NMR at 11.7T; for τM^310K, mean residence time of the water co-ligand at 310 K: q = 1 assumed
Procedure: (§3) Relaxivity measurements were performed on a Bruker mq60 Minispec at 1.41T and 37 °C. Longitudinal (T1) relaxation times were measured using an inversion recovery experiment with 10 inversion times of duration ranging between 0.05 × T1 and 5 × T1. Transverse (T2) relaxation times were measured using a CPMG pulse sequence. Relaxivity (r1, r2) was determined from the slope of a plot of 1/T1,2 vs [Gd] for at least 4 concentrations of Gd(III) (data shown in Supplementary Figs. 93–110). The T2 relaxation times of ^17O at 11.7T were estimated from the full-width at half-height of the H2^17O resonance at temperatures ranging from 278 to 368K. Reduced relaxation rates (1/T2r) were calculated by taking the difference of 1/T2 measured in the presence and absence of Gd(III) and dividing by the mole fraction of coordinated water molecules, assuming q = 1. […] However, at the high magnetic field used, and because of the very-fast water exchange rates observed, there was negligible contribution of T1e, and the data were refit to a two-parameter model using the water exchange rate at 310K (τM) and enthalpy of activation for water exchange (ΔH^‡) as adjustable parameters. The Gd-O hyperfine coupling constant, A/ħ, was assumed to be -3.8 × 10^6 rad s^−1 [57], [58]. Samples were prepared in neat H2O adjusted and enriched with a small amount of H2^17O.

[4] = Kinetic stability of Gd complexes monitored by RP-HPLC (acid, base, DTPA, DOTA, ZnCl2); format: physicochemical
From the text: The kinetic stability of GBCAs, which reflects the dissociation of the Gd ions from its chelate is used to predict the stability in vivo[10]. The proton-assisted dissociation and direct attack of the endogenous ions are regarded as two main pathways that induced the dissociation of the chelates. The inertness of our Gd(III) complexes was maintained up to 7 days after addition of 1000 equivalents of a competitive ligand, DTPA (Supplementary Fig. 7 & 8). […] The harshest condition tried was setting the complexes of [GdL2A]^−, [GdL2B]^− and [GdDOTA]^− in 1N HCl (Fig. 5, Supplementary Figs. 13 - 15).
Fig. […] Error bars for [GdL2A]^- and [GdL2B]^- refer to the standard error of mean (S.E.M.), statistical data fitting analysis (n = 3; s.e.m.)

[5] = Relaxivity measurements at 1.41T and 37 °C; format: physicochemical
Procedure: as §3

[6] = In vivo dynamic T1-weighted MR imaging at 4.7T; set-up: species or system C57/Bl6 mice; settings: 0.1 mmol per kg i.v., 4.7 tesla, n = 1
Procedure: Dynamic T1-weighted MR imaging at 4.7 tesla was performed with C57/Bl6 mice before, during, and after 0.1 mmol per kg injection of each compound (Fig. 7).
as §2

[7] = cited from earlier work
[8] = cited from earlier work; for elimination through the biliary system: predominantly renal elimination

Structure (SMILES): CC[C@H]1CN(CC(=O)[O-])[C@@H](CC)CN(CC(=O)[O-])[C@@H](CC)CN(CC(=O)[O-])[C@@H](CC)CN1CC(=O)[O-].[Gd+3] [[GdL2]^−]
- Gd biodistribution / elimination profile [1]: mainly distributed in the liver
- Gd(III) detected after 60 min (liver retention) ([1]; ICP-MS): negligible amounts

Structure (SMILES): CC[C@H]1CN(CC(=O)[O-])[C@@H](CC)CN(CC(=O)[O-])[C@@H](CC)CN(CC(=O)[O-])[C@@H](CC)CN1CC(=O)[O-].[Gd+3] [[GdL2B]^−]
- Gd concentration in gall bladder [2]: 1066 nmol Gd per gram tissue
- Gd concentration in blood ([2]; listed as GdL2B): 0.60 nmol Gd per gram tissue
- Gd concentration in gall bladder ([2]; listed as GdL2B): 1066.22 nmol Gd per gram tissue
- Gd concentration in heart ([2]; listed as GdL2B): 3.09 nmol Gd per gram tissue
- Gd concentration in intestines ([2]; listed as GdL2B): 47.07 nmol Gd per gram tissue
- Gd concentration in kidney ([2]; listed as GdL2B): 7.42 nmol Gd per gram tissue
- Gd concentration in liver ([2]; listed as GdL2B): 1.12 nmol Gd per gram tissue
- Gd concentration in lung ([2]; listed as GdL2B): 2.63 nmol Gd per gram tissue
- Gd concentration in muscle ([2]; listed as GdL2B): 5.43 nmol Gd per gram tissue
- Gd concentration in spleen ([2]; listed as GdL2B): 4.82 nmol Gd per gram tissue
- Gd concentration in stomach ([2]; listed as GdL2B): 1.05 nmol Gd per gram tissue
- Gd concentration in tail ([2]; listed as GdL2B): 2.64 nmol Gd per gram tissue
- τM^310K, mean residence time of the water co-ligand at 310 K [3]: 1.1 ± 0.1 ns
- decomplexation ([4]; 0.1N NaOH, over 10 days): negligible decomplexation
- decomplexation ([4]; 1N HCl, room temperature, after 487 h): only minimal decomplexation
- decomplexation ([4]; 1N HNO3, over 10 days): negligible decomplexation
- stability and interconversion ([4]; one equivalent of DOTA ligand in 1N HCl): no interconversion was observed
- r1 relaxivity ([5]; 4.5% w/v HSA (1.4T)): 4.8 mM⁻¹ s⁻¹
- r1 relaxivity ([5]; Human Plasma (1.4T)): 4.9 mM⁻¹ s⁻¹
- r1 relaxivity ([5]; Water (1.4T)): 3.9 mM⁻¹ s⁻¹
- MR enhancement of liver and gall bladder [6]: profound enhancement of the liver and gall bladder
- MR signal in the kidneys over time / at 60 min post injection [6]: approached baseline

Structure (SMILES): C[C@H](C(=O)[O-])N1CCN([C@H](C)C(=O)[O-])CCN([C@H](C)C(=O)[O-])[C@@H](Cc2ccc([N+](=O)[O-])cc2)CN([C@H](C)C(=O)[O-])CC1.[Gd+3] [Gd-NB-DOTMA(S-RRR)]
- ΔH^‡ ([7]; S-SSSS = SAP, S-RRR = TSAP): 6.62 kcal/mol
- τM^310K ([7]; S-SSSS = SAP, S-RRR = TSAP): 9.4 ns

Structure (SMILES): O=C([O-])CN(CCN(CC(=O)[O-])C[C@H](COP(=O)([O-])OC1CCC(c2ccccc2)(c2ccccc2)CC1)N(CC(=O)[O-])CC(=O)[O-])CC(=O)[O-].[Gd+3].[H+].[H+].[H+] [MS-325]
- blood half-life [8]: unusually long
- serum albumin binding [8]: extensive serum albumin binding
- elimination through the biliary system [8]: < 10%

Structure (SMILES): CCOc1ccc(C[C@@H](CN(CCN(CC(=O)[O-])CC(=O)[O-])CC(=O)[O-])N(CC(=O)[O-])CC(=O)[O-])cc1.[Gd+3].[Na+].[Na+] [Gd-EOB-DTPA]
- biliary clearance share ([8]; mixed clearance): 50%
- renal clearance share ([8]; mixed clearance): 50%

Structure (SMILES): O=C([O-])CN1CCN(CC(=O)[O-])CCN(CC(=O)[O-])[C@@H](Cc2ccc([N+](=O)[O-])cc2)CN(CC(=O)[O-])CC1.[Gd+3] [Gd-NB-DOTA]
- ΔH^‡ ([7]; Mix of isomers): 8.48 kcal/mol
- τM^310K ([7]; Mix of isomers): 111 ns

Structure (SMILES): O=C([O-])CN1CCN(CC(=O)[O-])CCN(CC(=O)[O-])CCN(CC(=O)[O-])CC1.[Gd+3] [[GdDOTA]^−, reference compound]
- ΔH^‡ ([7]; SAP isomer): 13.9 ± 0.598 kcal/mol
- τM^310K ([7]; SAP isomer): 141 ns
- ΔH^‡ ([7]; TSAP isomer): 10 ± 0.741 kcal/mol
- τM^310K ([7]; TSAP isomer): 27 ns
- Gd biodistribution / elimination profile [1]: rapid elimination from the body via the kidneys
- Gd(III) present at 6 h post injection ([1]; ICP-MS): Low levels
- half-life of the complex ([4]; 1N HCl, room temperature): < 25 h
- half-life of the complex ([4]; 100 equivalents of zinc chloride at 50 °C): ~ 100 h
- r1 relaxivity ([5]; 4.5% w/v HSA (1.4T)): 4.1 mM⁻¹ s⁻¹
- r1 relaxivity ([5]; Human Plasma (1.4T)): 4.0 mM⁻¹ s⁻¹
- r1 relaxivity ([5]; Water (1.4T)): 3.2 mM⁻¹ s⁻¹

Structure (SMILES): CC[C@@H]1CN(CC(=O)[O-])[C@H](CC)CN(CC(=O)[O-])[C@H](CC)CN(CC(=O)[O-])[C@H](CC)CN1CC(=O)[O-].[Gd+3] [[Gd(R)L2B]^−]
- ΔH^‡, enthalpy change of activation of water exchange [3]: 2.87 ± 0.406 kcal/mol
- τM^310K, mean residence time of the water co-ligand at 310 K [3]: 2.9 ± 0.1 ns
- r1 relaxivity ([5]; 4.5% w/v HSA (1.4T)): 4.8 mM⁻¹ s⁻¹
- r1 relaxivity ([5]; Human Plasma (1.4T)): 4.9 mM⁻¹ s⁻¹
- r1 relaxivity ([5]; Water (1.4T)): 3.9 mM⁻¹ s⁻¹

Structure (SMILES): CC[C@@H]1CN(CC(=O)[O-])[C@H](CC)CN(CC(=O)[O-])[C@H](CC)CN(CC(=O)[O-])[C@H](CC)CN1CC(=O)[O-].[Gd+3] [[Gd(R)L2A]^−]
- ΔH^‡, enthalpy change of activation of water exchange [3]: 7.89 ± 0.502 kcal/mol
- τM^310K, mean residence time of the water co-ligand at 310 K [3]: 8.1 ± 0.4 ns
- r1 relaxivity ([5]; 4.5% w/v HSA (1.4T)): 4.5 mM⁻¹ s⁻¹
- r1 relaxivity ([5]; Human Plasma (1.4T)): 4.6 mM⁻¹ s⁻¹
- r1 relaxivity ([5]; Water (1.4T)): 3.9 mM⁻¹ s⁻¹

Structure (SMILES): C[C@@H](C(=O)[O-])N1CCN([C@@H](C)C(=O)[O-])CCN([C@@H](C)C(=O)[O-])[C@@H](Cc2ccc([N+](=O)[O-])cc2)CN([C@@H](C)C(=O)[O-])CC1.[Gd+3] [Gd-NB-DOTMA(S-SSSS)]
- ΔH^‡ ([7]; S-SSSS = SAP, S-RRR = TSAP): 6.31 kcal/mol
- τM^310K ([7]; S-SSSS = SAP, S-RRR = TSAP): 77 ns

Structure (SMILES): C[C@H](C(=O)[O-])N1CCN([C@H](C)C(=O)[O-])CCN([C@H](C)C(=O)[O-])CCN([C@H](C)C(=O)[O-])CC1.[Gd+3] [Gd-DOTMA]
- ΔH^‡ ([7]; SAP isomer): 12.8 ± 0.693 kcal/mol
- τM^310K ([7]; SAP isomer): 156 ns
- ΔH^‡ ([7]; TSAP isomer): 9.63 ± 0.526 kcal/mol
- τM^310K ([7]; TSAP isomer): 26 ns

Structure (SMILES): O=C([O-])CN(CCN(CC(=O)[O-])CC(=O)[O-])CCN(CC(=O)[O-])C(COCc1ccccc1)C(=O)[O-].[Gd+3] (stereo not shown) [Gd-BOPTA]
- elimination through the biliary system [8]: < 10%
